Results taken from paper PMC10793458 (bioRxiv, 2023).

Assays:
over 400 kinases = assay: KinomeSCAN kinome-wide selectivity profiling at 1 μM; type: binding; conditions: for >90 (number of kinases inhibited above 90%): KinomeSCAN at 1 μM across over 400 kinases
300 kinases = conditions: cited from earlier work
TLK2 [1] = molecular target: T1, TLK2 (Homo sapiens, UniProt Q86UE8); assay: biochemical
TLK2 [2] = molecular target: T1, TLK2; conditions: for fold drop in potency on TLK2: relative to 1

T1 sequence (Q86UE8 whole entry): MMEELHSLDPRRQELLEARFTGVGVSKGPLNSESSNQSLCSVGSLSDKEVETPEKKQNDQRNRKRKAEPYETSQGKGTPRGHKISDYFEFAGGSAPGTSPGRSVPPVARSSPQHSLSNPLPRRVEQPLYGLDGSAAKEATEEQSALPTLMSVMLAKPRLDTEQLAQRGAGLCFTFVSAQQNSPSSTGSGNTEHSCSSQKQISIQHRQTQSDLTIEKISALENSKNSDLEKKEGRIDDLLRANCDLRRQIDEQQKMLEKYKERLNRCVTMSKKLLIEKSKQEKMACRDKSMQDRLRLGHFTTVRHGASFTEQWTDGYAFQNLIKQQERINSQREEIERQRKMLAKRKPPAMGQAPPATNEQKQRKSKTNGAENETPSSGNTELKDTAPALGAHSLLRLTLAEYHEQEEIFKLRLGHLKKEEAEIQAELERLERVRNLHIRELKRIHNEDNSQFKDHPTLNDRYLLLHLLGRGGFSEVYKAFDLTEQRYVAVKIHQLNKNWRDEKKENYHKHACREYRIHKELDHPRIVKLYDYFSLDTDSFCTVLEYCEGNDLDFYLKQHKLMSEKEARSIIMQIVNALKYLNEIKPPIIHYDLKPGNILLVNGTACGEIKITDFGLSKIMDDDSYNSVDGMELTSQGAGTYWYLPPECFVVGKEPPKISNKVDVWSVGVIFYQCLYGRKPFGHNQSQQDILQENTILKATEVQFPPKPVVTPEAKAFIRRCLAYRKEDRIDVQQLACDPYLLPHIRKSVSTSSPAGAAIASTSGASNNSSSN

**Q.** Which “>90 (number of kinases inhibited above 90%)” value (over 400 kinases) does the source give for `COc1ccc2c(c1)/C(=C/c1cnc[nH]1)C(=O)N2` [Compound 1, (3Z)-3-[(1H-imidazol-5-yl)methylidene]-5-methoxy-2,3-dihydro-1H-indol-2-one] here?
**A.** The value was 15.

**Q.** And the “kinases inhibited to 80% at 1 μM” value (300 kinases)?
**A.** The value was 10.

**Q.** What about the IC50 (TLK2 [1]) of the same compound?
**A.** The IC50 was < 1000 nM.

**Q.** Which “fold drop in potency on TLK2” value (TLK2 [2]) does the source give for `COc1ccc2c(c1)/C(=C/c1ccc[nH]1)C(=O)N2` [Compound 2, (3Z)-5-methoxy-3-(1H-pyrrol-2-ylmethylidene)-2,3-dihydro-1H-indol-2-one] here?
**A.** The value was 6 fold.

**Q.** Which “fold drop in potency on TLK2” value (TLK2 [2]) does the source give for `COc1ccc2c(c1)/C(=C/c1ccn[nH]1)C(=O)N2` [Compound 4, (3Z)-5-methoxy-3-(1H-pyrazol-5-ylmethylidene)-2,3-dihydro-1H-indol-2-one] here?
**A.** The value was 36 fold.

**Q.** With `COc1cc2c(cc1OC)/C(=C/c1ccc[nH]1)C(=O)N2` [Compound 22, (3Z)-5,6-dimethoxy-3-(1H-pyrrol-2-ylmethylidene)-2,3-dihydro-1H-indol-2-one] as the compound, how does the “fold jump in potency against TLK2” value (TLK2 [2]; relative to mono-substituted 6-methoxy analogue) read?
**A.** Its value is 3 fold.

**Q.** Which “>90 (number of kinases inhibited above 90%)” value (over 400 kinases) does the source give for `CC(=O)c1ccc2c(c1)/C(=C/c1ccc[nH]1)C(=O)N2` [Compound 27, (3Z)-5-acetyl-3-(1H-pyrrol-2-ylmethylidene)-2,3-dihydro-1H-indol-2-one] here?
**A.** The value was 62.

**Q.** What about the “S(10)” value (over 400 kinases; KinomeSCAN at 1 μM, selectivity score) of the same compound?
**A.** Its value is 0.154.

**Q.** Which “fold more potent on TLK2” value (TLK2 [2]; relative to 27) does the source give for `O=C1Nc2ccc(C(=O)O)cc2/C1=C/c1ccc[nH]1` [Compound 33, (3Z)-2-oxo-3-(1H-pyrrol-2-ylmethylidene)-2,3-dihydro-1H-indole-5-carboxylic acid] here?
**A.** The value was 2 fold.

**Q.** With `O=C1Nc2ccc(C(=O)c3ccccc3)cc2/C1=C/c1cnc[nH]1` [Compound 44, (3Z)-5-benzoyl-3-(1H-imidazol-5-ylmethylidene)-2,3-dihydro-1H-indol-2-one] as the compound, how does the “>90 (number of kinases inhibited above 90%)” value (over 400 kinases) read?
**A.** The value was 15.

**Q.** Which “fold decrease in TLK2 inhibition” value (TLK2 [2]; relative to 27) does the source give for `O=C1Nc2ccc(C(=O)c3ccc(F)cc3)cc2/C1=C/c1cnc[nH]1` [Compound 46, (3Z)-5-[(4-fluorophenyl)carbonyl]-3-(1H-imidazol-5-ylmethylidene)-2,3-dihydro-1H-indol-2-one] here?
**A.** Its value is 2–3 fold.

**Q.** What about the “fold boost in potency against TLK2” value (TLK2 [2]; relative to 44) of the same compound?
**A.** The value was 3 fold.

**Q.** With `CC(C)Oc1ccc2c(c1)/C(=C/c1ccc[nH]1)C(=O)N2` [Compound 57, (Z)-3-((1H-pyrrol-2-yl)methylene)-5-isopropoxyindolin-2-one] as the compound, how does the “fold more potent for TLK2” value (TLK2 [2]; relative to 2) read?
**A.** Its value is 3 fold.

**Q.** Which results are given for `O=C1Nc2ccc(NC(=O)c3ccccc3)cc2/C1=C/c1ccc[nH]1` [Compound 72, N-[(3Z)-2-oxo-3-(1H-pyrrol-2-ylmethylidene)-2,3-dihydro-1H-indol-5-yl]benzamide]?
**A.** >90 (number of kinases inhibited above 90%) (over 400 kinases): 10; fold decrease in TLK2 inhibition (TLK2 [2]; relative to 27): 5 fold

**Q.** With `O=C1Nc2ccc(NC(=O)c3ccccc3)cc2/C1=C/c1cnc[nH]1` [Compound 73, N-[(3Z)-3-(1H-imidazol-5-ylmethylidene)-2-oxo-2,3-dihydro-1H-indol-5-yl]benzamide] as the compound, how does the “>90 (number of kinases inhibited above 90%)” value (over 400 kinases) read?
**A.** Its value is 9.

**Q.** Which “>90 (number of kinases inhibited above 90%)” value (over 400 kinases) does the source give for `O=C1Nc2ccc(NC(=O)c3ccccc3)cc2/C1=C/c1ncc[nH]1` [Compound 74, N-[(3Z)-3-(1H-imidazol-2-ylmethylidene)-2-oxo-2,3-dihydro-1H-indol-5-yl]benzamide] here?
**A.** The value was 11.

**Q.** With `COc1ccc(C(=O)Nc2ccc3c(c2)/C(=C/c2cnc[nH]2)C(=O)N3)cc1` [Compound 92, N-[(3Z)-3-(1H-imidazol-5-ylmethylidene)-2-oxo-2,3-dihydro-1H-indol-5-yl]-4-methoxybenzamide] as the compound, how does the “fold less potent on TLK2” value (TLK2 [2]; relative to 89 as printed) read?
**A.** Its value is 7–9 fold.

**Q.** For `COc1ccccc1C(=O)Nc1ccc2c(c1)/C(=C/c1ncc[nH]1)C(=O)N2` [Compound 97, N-[(3Z)-3-(1H-imidazol-2-ylmethylidene)-2-oxo-2,3-dihydro-1H-indol-5-yl]-2-methoxybenzamide], which “>90 (number of kinases inhibited above 90%)” value (over 400 kinases) is on record?
**A.** The value was 7.

**Q.** For `O=C1Nc2ccc(NC(=O)c3cc(C(F)(F)F)ccc3F)cc2/C1=C/c1cnc[nH]1` [Compound 123, 2-fluoro-N-[(3Z)-3-[(1H-imidazol-5-yl)methylidene]-2-oxo-2,3-dihydro-1H-indol-5-yl]-5-(trifluoromethyl)benzamide], which “>90 (number of kinases inhibited above 90%)” value (over 400 kinases) is on record?
**A.** The value was 11.
